Test results as given in patent publication US20260015364A1, “PIPERAZINE BRIDGE-SUBSTITUTED HETEROCYCLIC PYRIMIDINE COMPOUND” (MEDSHINE DISCOVERY INC., priority 2022, published 2026).

What was measured:
[1] = test system: GP2D cell subcutaneously transplanted tumors; assay: In vivo pharmacodynamic experiment of GP2D tumor model; set-up: species or system Balb/c Nude mice; conditions: p.o., BID, 28 days of administration
Method: In vivo pharmacodynamics of GP2D cell subcutaneously transplanted tumors in Balb/c Nude mice model with human colon cancer
Cell culture: Human colon cancer GP2D cells were cultured in monolayer in vitro. The culture conditions were DMEM/F12 medium+20% fetal bovine serum, and cultured in a 37° C., 5% carbon dioxide incubator. Routine digestion with trypsin-EDTA was performed twice a week for passaging. When the cell saturation reached 80% to 90% and the required quantity was reached, the cells were harvested, counted, resuspended in an appropriate amount of PBS, and mixed with matrigel at a ratio of 1:1 to obtain a cell suspension with a cell density of 25×10^6 cells/mL.
Cell inoculation: 0.2 mL (5×10^6 cells/mouse) of GP2D cells (added with Matrigel with a volume ratio of 1:1) were subcutaneously inoculated into the right back of each mouse. […]
Tumor diameters were measured twice a week with a vernier caliper. […]
The tumor inhibitory efficacy of the compound was evaluated by TGI (%) or relative tumor proliferation rate T/C (%). […] The relative tumor volume (RTV) was calculated based on the results of tumor measurements. The calculation formula is RTV=Vt/V0, where V0 is the average tumor volume measured at the beginning of administration in groups (i.e., D0), and Vt is the average tumor volume measured at a certain measurement. […]

[2] = test system: GP2D human colon cancer cells with KRAS^G12D mutation; assay: GP2D 3D CTG experiment (anti-proliferation); type: cell-based; conditions: 120 h, 5 days incubation
Text: This experiment aims to verify the inhibitory effect of the compounds of the present disclosure on the proliferation of GP2D human colon cancer cells with KRAS^G12D mutation.
Cell line GP2D and DMEM medium were purchased from GIBCO, FBS was purchased from Hyclone, and L-glutamine was purchased from Invitrogen. The 96-well plate was purchased from Ultra Low Cluster. CellTiter-Glo® 3D Cell Viability Assay reagents (chemiluminescent 3D cell viability assay reagents) were purchased from Promega, and 2104 En Vision plate reader was purchased from PerkinElmer.
GP2D cells were cultured in an incubator at 37° C. with 5% CO2 under the conditions of DMEM+10% FBS+2 mM L-glutamine. Regular passaging was performed, and cells in the logarithmic growth phase were selected for plating. GP2D cells were seeded in a 96-well U-bottom cell culture plate, and each well of 135 μL cell suspension contained 6000 GP2D cells. The culture plate was cultured overnight in a 37° C., 5% CO2 incubator with 100% relative humidity. The test compound was diluted 5-fold to the eighth concentration using a pipette, ranging from 200 μM to 2.56 nM, and tested in duplicate. 78 μL of culture medium per well was added to an intermediate plate. […] A multimode microplate reader was used for reading. […]

p-ERK in GP2D cells = assay: p-ERK inhibition test of GP2D cells (HTRF); type: cell-based; conditions: Homo sapiens, 1 hour compound incubation
Method: • 1). GP2D cells are seeded in a transparent 96-well cell culture plate, with 80 μL of cell suspension per well and 8000 cells per well, and the cell plate is incubated in a carbon dioxide incubator at 37° C. overnight; • 2). 2 μL of the compound is added to 78 μL of cell culture medium; after mixing well, 20 μL of the compound solution is taken and added to the corresponding cell plate wells, and the cell plate is put back into the carbon dioxide incubator to incubate for another 1 hour; • 3). After the incubation is completed, the cell supernatant is discarded, and 50 μL of 1× cell lysate is added to each well, and incubated at room temperature for 30 minutes with shaking; • 4). Phospho-ERK1/2 Eu Cryptate antibody and Phospho-ERK1/2 d2 antibody are 20-fold diluted using detection buffer; • 5). […] After the incubation is completed, a multimode microplate reader is used to read HTRF excitation: 320 nm, emission: 615 nm, 665 nm; • 7). The IC50 of the test compound is calculated.
• 1). […] After the incubation was completed, a multimode microplate reader was used to read HTRF excitation: 320 nm, emission: 615 nm, 665 nm; • 7) The IC50 of the test compound was calculated.

## C#Cc1c(F)ccc2cc(N)cc(-c3ncc4c(N5CC6CCC(C5)N6)nc(OC[C@@]56CC(=C)CN5C[C@@H]5C[C@@H]56)nc4c3F)c12 (single isomer, unassigned) [Compound 3]
[1]; 30 mpk
  TGI: 85.57%
[1]; 100 mpk
  TGI: 98.95%
[2]
  IC50: 0.54 nM
p-ERK in GP2D cells
  IC50: 2.4 nM
